Source: PMC11438102, “Modulation of cannabinoid receptor 2 alters neuroinflammation and reduces formation of alpha-synuclein aggregates in a rat model of nigral synucleinopathy” (Journal of Neuroinflammation, 2024)

Tests used:
[1] = test system: pSer129 and total human Asyn in striatum; assay: Western immunoblot of pSer129 and total human Asyn in striatal lysates; format: in vivo; conditions: rat low cohort, striatum ipsilateral to AAV, 6 mg/kg i.p. daily 7 weeks, vs vehicle
Protocol: Sprague Dawley male rats (16–18 weeks of age, 400–525 g) were purchased from Charles River Laboratories and acclimated to Emory University animal facilities. Rats were pair housed in standard plexiglass cages under normal 12-hr light cycles and handled in accordance with protocols approved by the IACUC of Emory University in Atlanta, GA. Rats were administered unilateral injections of AAV2/5-human wild-type (WT) Asyn at titers of 2.9–4.3 × 10^11 vector genomes (vg)/mL (termed “low cohort”), which was previously shown to not induce nigral neurotoxicity. Thereby, generating a model with overexpression of human WT Asyn and Asyn-mediated neuroinflammation. […]
Striatal tissue from successfully targeted low cohort rats was homogenized in ice-cold TriZOL lysed using the TissueLyser system. […] Total protein concentrations were measured using Pierce BCA Protein Assay Kit and equal amount of protein (10–20 µg) mixed with Laemmli sample buffer were loaded in 4–20% TGX precast gels (Biorad) for gel electrophoresis. […] Revert staining was captured and measured on the Licor Odyssey at 700 nm for 30 s.
Non-specific protein binding was blocked with 5% milk and 0.1% Tween-20 in TBS for 1 h at room temperature, and membranes incubated with primary antibodies overnight at 4°C. […] The density of the band was quantified using StudioLite software. […]

[2] = Blood brain barrier penetration / pharmacokinetics of SMM-189 in mice; format: in vivo; conditions: 6 mg/kg
Protocol: Analysis of the brain-to-blood ratios of SMM-189 were performed by Sai Life Sciences Limited (Telangana, India). All procedures of the study were in accordance with the guidelines provided by the Committee for the Purpose of Control and Supervision of Experiments on Animals (CPCSEA) as published in The Gazette of India, December 15, 1998. Prior approval of the Institutional Animal Ethics Committee (IAEC) was obtained before initiation of the study. In brief, 54 mice were weighed and divided as Group 1 (6 mg/kg, i.p.) and Group 2 (6 mg/kg, by oral (p.o.)). Animals in Group 1 and Group 2 were administered intraperitoneally and orally with SMM-189 solution formulation at 6 mg/kg in 5% Ethanol, 5% Cremophor and 90% Normal Saline, respectively. The blood samples were collected under light isoflurane anesthesia at 0.08, 0.25, 0.5, 1, 2, 4, 8, 12 and 24 h (i.p.) and 0.25, 0.5, 1, 2, 4, 6, 8, 12 and 24 h (p.o.) in labeled micro centrifuge tube containing K2EDTA as anticoagulant. After blood collection, plasma was harvested by centrifugation and stored at -70 °C until analysis. Immediately after collection of blood, brain samples were collected from set of three mice at each time point at 0.08, 0.25, 0.5, 1, 2, 4, 8, 12 and 24 h (Group 1; i.p.) and 0.25, 0.5, 1, 2, 4, 6, 8, 12 and 24 h (Group 2; p.o.). Brain samples were homogenized using ice-cold phosphate buffer saline (pH-7.4) in a ratio of 2 (buffer):1(brain); and homogenates were stored below − 70 ± 10 °C until analysis. Total homogenate volume was three times the brain weight. All samples were processed for analysis by protein precipitation using acetonitrile and analyzed with fit-for-purpose LC-MS/MS method (LLOQ = 1.02 ng/mL for plasma and 6.09 ng/g for brain).
Non-compartmental-analysis module in Phoenix WinNonlin® (Version 6.3) was used to assess the pharmacokinetic parameters. Maximum concentration (Cmax) and time to reach the maximum concentration (Tmax) were the observed values. The areas under the concentration time curve (AUClast and AUCinf) were calculated by linear trapezoidal rule. The terminal elimination rate constant, ke was determined by regression analysis of the linear terminal portion of the log plasma concentration-time curve. The terminal half-life (T1/2) was estimated as 0.693/ke.

[3] = format: in vivo; conditions: 6 mg/kg i.p. daily, ~2 h post-dose
Protocol: One week after surgery, animals were randomly selected to receive daily systemic injections of either SMM-189 (intraperitoneal (i.p.), 6 mg/kg, n = 12) or vehicle (i.p., n = 12) and followed for 8 weeks (Figs. 1; n = 2 rats per group were removed due to poor nigral targeting). […] Plasma was also collected at baseline, 4 and 8 weeks post-AAV-hAsyn injections and CSF collected prior to perfusion to measure levels of SMM-189.
Blood was collected from the tail vein at baseline and every 4 weeks post-AAV (~ 2 h post-treatment injection) for plasma to measure SMM-189 levels in low and high cohorts and for PBMCs to immunophenotype circulating immune cells in the high cohort animals. […] Tails were cleaned with ethanol and approximately 400μL of blood drawn from the lateral tail vein using a low dead space 25ga needle and syringe and blood immediately placed into an EDTA tube.
CSF was collected at endpoint from low cohort animals. […] A sterile pulled micropipettes attached to tubing and a syringe punctured into the cisterna magna and clean CSF was aspirated and collected in a 0.2mL Eppendorf and stored at -80°C.
A total of 50 µL aliquots of plasma or CSF were prepared by protein precipitation with 100 µL acetonitrile (spiked with the internal standard d^5-SMM-189) followed by centrifugation at 10,000g for 10 min at 4°C. Chromatographic separation of the supernatant was performed using a Zorbax SB-C18 3.5 μm 4.6 × 150 mm and a Shimadzu HPLC Nexera XR with Solvent Delivery Module LC-20ADXR, CTO-20AC prominence column oven (temperature 40 °C), a DGU-20A5R Degassing Unit, and a SIL-20ACXR autosampler. The aqueous mobile phase (A) was 95% water and 5% acetonitrile (B) was 100% acetonitrile.

O=C(c1ccccc1)c1cc(O)c(-c2cc(Cl)cc(Cl)c2)c(O)c1 [SMM-189]
pS129 levels in striatum, western [1]: reduced | total human Asyn levels in striatum, western [1]: no differences | Cmax ([2]; brain, i.p.): 204.64 ng/mL | Tmax ([2]; brain, i.p.): 30 min | Cmax ([2]; brain, p.o.): 70.34 ng/mL | Tmax ([2]; brain, p.o.): 15 min | Brain/plasma ratio (Cmax) ([2]; i.p.): 0.74 | Brain/plasma ratio (Cmax) ([2]; p.o.): 1.63 | Cmax ([2]; plasma, i.p.): 277.07 ng/mL | Tmax ([2]; plasma, i.p.): 30 min | Cmax ([2]; plasma, p.o.): 43.15 ng/mL | Tmax ([2]; plasma, p.o.): 15 min | SMM-189 plasma levels compared to vehicle ([3]; rat high cohort, 4 and 8 weeks): increased | level of plasma SMM-189 compared to vehicle-treated rats ([3]; rat low cohort, 4 and 8 weeks): Significant increases | Levels of SMM-189 in the CSF, average ± SEM ([3]; rat low cohort, endpoint): 0.44 ± 0.22 ng/mL
